Assay results taken from US5962275A, “Method for the enzymatic galactosylation of monosaccharides and oligosaccharides” (Hoechst Aktiengesellschaft, priority 1995, dated 1999).
“Also recorded” adds a separate entry of the source. Read-outs that look alike come from different tables or passages of the source.

Assays:
Assay type in all cases: biochemical
[1] = target: T1, UDP-glucose 4'-epimerase (Saccharomyces cerevisiae, UniProt P04397); experiment: Stability (rel. activity) of the epimerase in the presence of various donors and acceptors of GalT; conditions: for inactivation of the epimerase (in words): donors and acceptors of GalT, acceptors in the presence of UMP
T1 sequence (P04397 whole entry): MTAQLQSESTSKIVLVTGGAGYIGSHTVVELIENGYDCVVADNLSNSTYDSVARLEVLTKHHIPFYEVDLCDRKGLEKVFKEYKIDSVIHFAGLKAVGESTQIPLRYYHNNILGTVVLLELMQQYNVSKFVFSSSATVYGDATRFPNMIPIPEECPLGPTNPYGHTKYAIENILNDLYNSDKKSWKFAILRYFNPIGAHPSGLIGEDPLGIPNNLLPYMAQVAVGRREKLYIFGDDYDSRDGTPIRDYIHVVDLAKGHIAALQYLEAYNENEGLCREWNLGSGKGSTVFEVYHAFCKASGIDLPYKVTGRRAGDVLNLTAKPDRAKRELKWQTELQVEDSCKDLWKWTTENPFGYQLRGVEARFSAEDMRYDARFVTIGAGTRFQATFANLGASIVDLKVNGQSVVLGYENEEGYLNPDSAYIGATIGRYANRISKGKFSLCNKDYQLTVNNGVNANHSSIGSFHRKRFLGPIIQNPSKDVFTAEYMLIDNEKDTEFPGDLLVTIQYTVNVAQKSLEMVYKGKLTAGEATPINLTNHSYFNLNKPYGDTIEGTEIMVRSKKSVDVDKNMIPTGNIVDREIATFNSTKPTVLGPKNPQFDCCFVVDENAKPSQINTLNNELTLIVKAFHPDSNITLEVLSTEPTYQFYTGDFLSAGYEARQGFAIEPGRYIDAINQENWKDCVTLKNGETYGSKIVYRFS
Protocol: 893 μl of 100 mM glycine buffer, pH 8.8
In order to examine the thesis that the inactivation of the epimerase can occur in association with many applications, the stability of the epimerase was tested in the presence of various donors and acceptors of GalT.
P: 200 mM HepesNaOH, pH 7.2, 1 mM DTT, 1 mg/ml BSA, 25 mM KCl containing
R: Activity following reactivation of the epimerase with
dTDP6-deoxy-D-xylo-4-hexulose (c = 0.1 mM)

[2] = target: T1, UDP-glucose 4'-epimerase; experiment: Reactivation of the inactivated epimerase with activator; conditions: for time after which renewed inactivation of the epimerase is observed: activator 0.1 mM, galactose and UMP still present in the mixture
Protocol: Both dUDP-6-deoxy-D-xylo-4-hexulose and dTDP-6-deoxy-D-xylo-4-hexulose, and also 6-deoxyglucosone, galactosone, allosone and glucosone, were used for reactivating the epimerase.
2. Inactivation of the epimerase
1 mg/ml bovine serum albumin (BSA)
3. Activation of the epimerase
160 μl of inactivated epimerase
40 μl of activator (different concentrations)

[3] = target: T1, UDP-glucose 4'-epimerase; experiment: Inactivation of the epimerase by sugar in the presence of UMP; conditions: 500 mM sucrose, 0.1 mM UMP, Hepes pH 7.2, 30° C., 8 hours
Protocol: A: 200 mM Hepes pH 7.2, 1 mM DTT, 1 mg/ml BSA B: 200 mM Hepes pH 7.2, 1 mM DTT, 1 mg/ml BSA, 500 mM sucrose A. Buffer solution A B. Buffer solution A, 0.1 mM UMP C. Buffer solution B D. […] Incubation temperature: 30° C. Activity test: (Fukusawa et al., J. Biol. Chem. 255, 2705-2707 (1980)) | 893 μl of 100 mM glycine buffer, pH 8.8 | 20 μl of 5 mM UDP-Gal | 20 μl of 50 mM NAD […] |33.3 μl of epimerase Temperature: 25° C. Measurement at 340 nm

[4] = 2 h, acceptor 50 mM, buffer P pH 7.2 containing 0.1 mM UMP, read-out: Rel. activity of the epimerase, incubation time 2h
[5] = acceptor 50 mM, buffer P pH 7.2 containing 0.1 mM UMP
[6] = inactivated epimerase plus activator, different concentrations
[7] = 2 h, pH 7.2, read-out: Rel. activity of the epimerase, incubation time 2h

**Q.** How did the activity at 50000 µM [1, 4] turn out when `OC[C@H]1SC(O)[C@H](O)[C@@H](O)[C@@H]1O` (stereo partly drawn) [Thioglc, 5-thio-D-glucose] was run?
**A.** 87.9%

**Q.** What about the “Rel. activity of the epimerase, incubation time 7h” value [1, 5] of the same molecule?
**A.** 34.3

**Q.** And the “inactivation of the epimerase (in words)” value [1]?
**A.** inactivated

**Q.** `OC[C@H]1OC(O)[C@H](O)[C@@H](O)[C@H]1O` (stereo partly shown) [galactose] was tested. Which “measured activity of the epimerase after inactivation” value ([2]; 50 mM galactose, 0.1 mM UMP, 0.25 mg/ml epimerase, 2 h at 30° C.) did it give?
**A.** 3%

**Q.** Which results are given for `C[C@H]1O[C@H](OP(=O)(O)OP(=O)(O)OC[C@H]2O[C@@H](n3ccc(=O)[nH]c3=O)C[C@@H]2O)[C@H](O)[C@@H](O)C1=O` [dUDP-6-deoxy-D-xylo-4-hexulose]?
**A.** reactivation of the epimerase (in words) [2]: can be used to reactivate; also recorded: successfully employed to reactivate the epimerase; activation of the epimerase (in words) ([2]; 1 mM activator, activity monitored over […]): rapid activation of the epimerase, with the activation being stable over the period of observation; time after which renewed inactivation of the epimerase is observed [2]: 32 h; activation of the epimerase (in words) [2, 6]: rapid and long-lasting activation

**Q.** With `OC[C@H]1OC(O)[C@H](O)[C@@H](O)[C@@H]1O` (stereo partly shown) [Glc, glucose] as the molecule, how does the activity at 50000 µM [1, 7] read?
**A.** 15.8%

**Q.** And the “inactivation of the epimerase (in words)” value [1]?
**A.** inactivated

**Q.** What does the source list for `CC(=O)N[C@H]1C(O)O[C@H](CO)[C@@H](O)[C@@H]1O` (stereo partly shown) [GlcNAc, N-acetylglucosamine]?
**A.** activity at 50000 µM [1, 4]: 93.6%; Rel. activity of the epimerase, incubation time 7h [1, 5]: 97.5

**Q.** Which results are given for `CCCCCCCCOC1O[C@H](CO)[C@@H](O)[C@H](O)[C@H]1O` (stereo partly shown) [n-Octylglucopyranoside, n-octylglucopyranoside]?
**A.** activity at 50000 µM [1, 4]: 86.1%; activity at 50000 µM ([1]; 8 h, acceptor 50 mM, buffer P pH 7.2 containing 0.1 mM UMP, read-out: Rel. activity of the epimerase, incubation time 8h): 29.3%; Rel. activity of the epimerase, incubation time 7h [1, 5]: 75.6; inactivation of the epimerase (in words) [1]: inactivated

**Q.** How did the activity at 50000 µM [1, 7] turn out when `OC[C@H]1OC(O)C[C@@H](O)[C@@H]1O` (stereo partly drawn) [2-Deoxyglc, 2-deoxy-D-glucose] was run?
**A.** 20.7%

**Q.** And the “inactivation of the epimerase (in words)” value [1]?
**A.** inactivated

**Q.** Which “inactivation of the epimerase (in words)” value [3] does the source give for `OC[C@H]1O[C@@](CO)(O[C@H]2O[C@H](CO)[C@@H](O)[C@H](O)[C@H]2O)[C@@H](O)[C@@H]1O` [sucrose] here?
**A.** inactivated

**Q.** With `Cc1cn([C@H]2C[C@H](O)[C@@H](COP(=O)(O)OP(=O)(O)O[C@H]3O[C@H](C)C(=O)[C@H](O)[C@H]3O)O2)c(=O)[nH]c1=O` [dTDP-6-deoxy-D-xylo-4-hexulose] as the molecule, how does the “reactivation of the epimerase (in words)” value [2] read?
**A.** can be used to reactivate

**Q.** What about the “time after which renewed inactivation of the epimerase is observed” value [2] of the same molecule?
**A.** 32 h

**Q.** And the “activation of the epimerase (in words)” value [2, 6]?
**A.** rapid and long-lasting activation
